{"source": "patent EP3035931B1", "about": "“COMPOSITION FOR REDUCING NERVOUS SYSTEM INJURY AND METHOD OF MAKING AND USE THEREOF” (Morehouse School of Medicine, priority 2013, dated 2015)", "key": {"ASIC1a channel": {"biological_target": "T1, ASIC1a channel (Mus musculus, UniProt Q6NXK8)", "T1 construct": "endogenous in cells", "T1 sequence (Q6NXK8 1-526)": "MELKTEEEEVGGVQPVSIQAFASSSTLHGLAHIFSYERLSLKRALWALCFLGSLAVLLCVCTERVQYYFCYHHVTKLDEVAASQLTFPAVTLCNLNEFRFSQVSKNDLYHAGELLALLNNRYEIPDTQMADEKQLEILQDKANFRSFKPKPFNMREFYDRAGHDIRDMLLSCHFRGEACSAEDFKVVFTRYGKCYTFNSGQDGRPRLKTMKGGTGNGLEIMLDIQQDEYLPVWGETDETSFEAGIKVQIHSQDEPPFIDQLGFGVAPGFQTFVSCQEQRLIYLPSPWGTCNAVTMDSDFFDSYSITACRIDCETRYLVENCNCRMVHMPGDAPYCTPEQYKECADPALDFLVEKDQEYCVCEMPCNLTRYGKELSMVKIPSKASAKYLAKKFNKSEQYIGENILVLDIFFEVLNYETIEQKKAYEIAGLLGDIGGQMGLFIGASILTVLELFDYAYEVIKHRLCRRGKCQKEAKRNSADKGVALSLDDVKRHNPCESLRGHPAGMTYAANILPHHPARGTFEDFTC", "experiment": "Table 1, inhibition in neurons", "format": "cell-based", "experimental": "ASIC currents were recorded with whole-cell patch-clamp and fast-perfusion techniques. […] For low pH solutions, various amounts of HCl were added. For solutions with pH<6.0, MES instead of HEPES was used for more reliable pH buffering. Patch electrodes contained (in mM) 140 CsF, 2.0 MgCl2, 1.0 CaC2, 10 HEPES, 11 EGTA, 4 MgATP (pH 7.3), 300 mOsm. […] A multibarrel perfusion system (SF-77B, Warner Instrument Co.) was employed for rapid exchange of solutions."}, "[1]": {"experiment": "Mouse 60 min MCAO, intracerebroventricular injection one hour after MCAO, infarct volume", "conditions": "mice, evaluated one day after ischemia induction, FIG. 18"}, "Knockout 1a": {"tested_on": "Knockout 1a", "experiment": "Table 1, inhibition in Knockout 1a", "format": "cell-based"}, "ASIC1a [2]": {"biological_target": "T2, ASIC1a (Homo sapiens, UniProt P78348)", "T2 sequence (P78348 1-528)": "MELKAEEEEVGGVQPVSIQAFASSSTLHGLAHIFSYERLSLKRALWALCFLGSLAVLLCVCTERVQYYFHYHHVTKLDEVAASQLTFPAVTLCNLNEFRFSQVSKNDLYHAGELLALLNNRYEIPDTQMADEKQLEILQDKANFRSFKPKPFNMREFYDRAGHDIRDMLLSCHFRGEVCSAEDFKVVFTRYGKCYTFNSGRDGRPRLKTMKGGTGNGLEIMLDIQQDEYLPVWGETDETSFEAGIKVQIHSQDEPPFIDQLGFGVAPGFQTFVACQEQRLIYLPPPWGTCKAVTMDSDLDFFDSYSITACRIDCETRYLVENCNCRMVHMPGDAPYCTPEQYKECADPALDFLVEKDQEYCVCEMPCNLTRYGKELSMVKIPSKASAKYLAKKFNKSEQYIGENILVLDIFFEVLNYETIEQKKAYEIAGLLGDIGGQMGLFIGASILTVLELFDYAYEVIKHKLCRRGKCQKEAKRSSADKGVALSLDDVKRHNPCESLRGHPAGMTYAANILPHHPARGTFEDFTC", "experiment": "Blockade of ASIC 1a current expressed in CHO cells", "format": "cell-based", "design": "expressed in transfected cells; host or cells: CHO", "conditions": "for block of ASIC1a current: CHO cells, FIG. 16"}, "Knockout 2a": {"tested_on": "Knockout 2a", "experiment": "Table 1, inhibition in Knockout 2a", "format": "cell-based"}, "ASIC2a": {"biological_target": "T3, ASIC2a (Homo sapiens, UniProt Q16515)", "T3 construct": "expressed in transfected cells; host or cells: CHO", "T3 sequence (Q16515 1-512)": "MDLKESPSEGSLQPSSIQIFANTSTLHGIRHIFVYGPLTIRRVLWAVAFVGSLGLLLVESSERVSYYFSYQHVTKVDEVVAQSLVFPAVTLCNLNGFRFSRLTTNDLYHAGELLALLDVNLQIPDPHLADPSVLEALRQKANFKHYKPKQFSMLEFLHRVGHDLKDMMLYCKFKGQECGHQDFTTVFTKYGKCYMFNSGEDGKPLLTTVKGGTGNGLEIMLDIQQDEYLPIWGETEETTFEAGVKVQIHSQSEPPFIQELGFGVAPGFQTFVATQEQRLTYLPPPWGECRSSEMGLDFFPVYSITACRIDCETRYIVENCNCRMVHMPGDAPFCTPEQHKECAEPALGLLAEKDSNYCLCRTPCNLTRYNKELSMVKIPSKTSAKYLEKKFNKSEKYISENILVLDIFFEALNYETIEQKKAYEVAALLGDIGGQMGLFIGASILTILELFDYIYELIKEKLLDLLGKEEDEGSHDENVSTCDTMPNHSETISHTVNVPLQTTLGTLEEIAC", "experiment": "Blockade of ASIC 2a current expressed in CHO cells", "format": "cell-based"}, "[3]": {"tested_on": "cultured cortical neurons", "experiment": "LDH release after combined 1 hr OGD/acidosis in cortical neurons", "format": "cell-based, mouse", "conditions": "trolox 500 µM, L-NAME 300 µM; n=8-11", "experimental": "(§1) Background absorbance at 620 was subtracted.\nNeurons were washed three times and incubated with glucose-free ECF at pH 7.4 or 6.0 in an anaerobic chamber (Model 1025, Forma Scientific) with an atmosphere of 85% N2, 10% H2, and 5% CO2 at 35° C. Oxygen-glucose deprivation (OGD) was terminated after 1 hr by replacing the glucose-free ECF with Neurobasal medium and incubating the cultures in a normal cell culture incubator.\nAs the magnitude of ASIC currents may be potentiated by cellular and neurochemical components of brain ischemia-cell swelling, arachidonic acid, and lactate and, more importantly, the desensitization of ASIC currents may be reduced dramatically by modeled ischemia (see FIGS. 5A and 5C), activation of ASICs in ischemic conditions is expected to produce greater neuronal injury. To test this hypothesis, neurons were subjected to 1 hr acid treatment under oxygen and glucose deprivation (OGD). MK801, CNQX, and nimodipine were added to all solutions to inhibit voltage-gated Ca^2+ channels and glutamate receptor-mediated cell injury associated with OGD. One hour incubation with pH 7.4 ECF under OGD conditions induced only 27.1% ± 3.5% of maximal LDH release at 24 hr (n=5, FIG. 9D)."}, "ASIC1^-/- neurons": {"tested_on": "ASIC1^-/- neurons", "format": "cell-based, mouse", "conditions": "1 hr treatment with 1 mM NMDA+10 µM glycine in Mg^2+-free pH 7.4 ECF; n=4", "experimental": "Following anesthesia with halothane, cerebral cortices were dissected from E16 Swiss mice or P1 ASIC1+/+ and ASIC1-/- mice and incubated with 0.05% trypsin-EDTA for 10 min at 37° C. Tissues were then triturated with fire-polished glass pipettes and plated on poly-L-ornithine-coated 24-well plates or 25x25 mm glass coverslips at a density of 2.5x10^5 cells per well or 10^6 cells per coverslip. Neurons were cultured with MEM supplemented with 10% horse serum (for E16 cultures) or Neurobasal medium supplemented with B27 (for PI cultures) and used for electrophysiology and toxicity studies after 12 days. Glial growth was suppressed by addition of 5-fluoro-2-deoxyuridine and uridine, yielding cultured cells with 90% neurons as determined by NeuN and GFAP staining (data not shown).\nas §1\n. […] . In contrast to acid incubation, 1 hr treatment of ASIC1^-/- neurons with 1 mM NMDA+10 µM glycine (in Mg^2+-free [pH 7.4] ECF) induced 84.8% ± 1.4% of maximal LDH release at 24 hr (n=4, FIG. 9C), indicating normal response to other cell injury processes."}, "[4]": {"conditions": "0.9% saline; cited from earlier work"}, "ASIC1a [5]": {"biological_target": "T2, ASIC1a", "experiment": "Inhibition of the ASIC1a channel (IC50 from Table 1, cell system not given)", "format": "cell-based", "conditions": "quoted in the text from Table 1"}, "[6]": {"experiment": "Mouse 60 min MCAO, memantine i.p. with or without PcTX venom i.c.v., infarct volume", "format": "in vivo, mice"}, "cortical neurons": {"tested_on": "cortical neurons", "experiment": "Fura-2 Ca^2+ imaging of acid-induced increase of [Ca^2+]i in cortical neurons", "format": "cell-based, mouse", "conditions": "preincubation with 1 µM; n=6"}, "[7]": {"conditions": "read-out: Inhibition of the ASIC1a channel, Neuron (-60 mV)"}, "[8]": {"conditions": "Neuron (-60 mV), read-out: Inhibition of the ASIC1a channel, Neuron (-60 mV)"}}, "note": "Where “and” joins values, the source holds several entries; their conditions need not be identical. Equal entries are not always repeated. Structures can show the parent of a compound that is named as a salt. Where two headings read alike, the source gives them in different places.", "data": [{"molecule": "CN(C)c1nc(N)c(C(=O)NC(=N)N)nc1Cl", "note": "[5-(N, N-Dimenthyl)amiloride hydrochloride]", "values": [{"measurement": "IC50", "setting": "ASIC1a channel; [7]", "value": "14.8 ± 7.1", "unit": "µM"}]}, {"molecule": "CC(C)CN(C)c1nc(N)c(C(=O)N=C(N)N)nc1Cl", "note": "[5-(N-Methyl-N-isobutyl)-amiloride]", "values": [{"measurement": "IC50", "setting": "ASIC1a channel; [7]", "value": 24.3, "unit": "µM"}]}, {"molecule": "CC(C)COCC(CN(Cc1ccccc1)c1ccccc1)N1CCCC1", "note": "(stereo not drawn) [Bepridil, bepridil]", "values": [{"measurement": "IC50", "setting": "ASIC1a channel; [8]", "value": "82.9 ± 5.2", "unit": "µM"}, {"measurement": "infarct volume", "setting": "[1]", "value": "effectively reduce infarct volume"}]}, {"molecule": "CCN(c1nc(N)c(C(=O)NC(=N)N)nc1Cl)C(C)C", "note": "[EIPA, 5-(N-ethyl-N-isopropyl) amiloride]", "values": [{"measurement": "IC50", "setting": "Knockout 1a", "value": "35.9 ± 2.1", "unit": "µM"}, {"measurement": "IC50", "setting": "ASIC1a [2]; CHO 1a, read-out: Inhibition of the ASIC1a channel, CHO 1a", "value": "111 ± 30", "unit": "µM"}, {"measurement": "block of ASIC1a current", "setting": "ASIC1a [2]", "value": "dose-dependent"}, {"measurement": "IC50", "setting": "Knockout 2a", "value": "20.1 ± 2.2", "unit": "µM"}, {"measurement": "IC50", "setting": "ASIC2a; CHO 2a, read-out: Inhibition, CHO 2a", "value": 31, "unit": "µM"}, {"measurement": "block of ASIC2a current", "setting": "ASIC2a; CHO cells, FIG. 17", "value": "dose-dependent"}, {"measurement": "IC50", "setting": "ASIC1a channel; Neuron (-20 mV), read-out: Inhibition of the ASIC1a channel, Neuron (-20 mV)", "value": "32.2 ± 6.3", "unit": "µM"}, {"measurement": "IC50", "setting": "ASIC1a channel; [8]", "value": "43.3 ± 1.43", "unit": "µM"}]}, {"molecule": "COC(=O)[C@@H](N)CCCNC(=N)N[N+](=O)[O-]", "note": "[L-NAME]", "values": [{"measurement": "LDH release induced by combined 1 hr OGD/acidosis", "setting": "[3]", "value": "not inhibited"}]}, {"molecule": "CN[C@H](CC(=O)O)C(=O)O", "note": "[NMDA]", "values": [{"measurement": "maximal LDH release at 24 hr", "setting": "ASIC1^-/- neurons", "value": "84.8% ± 1.4%"}]}, {"molecule": "NC(=NCc1ccccc1)NC(=O)c1nc(Cl)c(N)nc1N", "note": "[benzamil]", "values": [{"measurement": "reported solubility", "setting": "[4]", "value": "0.4 mg/ml and 1.7 mM"}, {"measurement": "IC50", "setting": "ASIC1a [5]", "value": "4.9 µM and 4 to 8 µM"}]}, {"molecule": "CC12CC3CC(C)(C1)CC(N)(C3)C2", "note": "[memantine]", "values": [{"measurement": "infarct volume", "setting": "[6]; ASIC1^-/- mice, memantine i.p., n=5", "value": "27.7 ± 1.6", "unit": "mm^3"}, {"measurement": "infarct volume", "setting": "[6]; ASIC^+/+ mice, 10 mg/kg memantine i.p., saline 101.4 ± 9.4, n=5", "value": "61.6 ± 12.7", "unit": "mm^3"}]}, {"molecule": "NC(=Nc1ccccc1)NC(=O)c1nc(Cl)c(N)nc1N", "note": "[phenamil]", "values": [{"measurement": "block of ASIC1a current", "setting": "ASIC1a [2]", "value": "dose-dependent"}]}, {"molecule": "C/C=C(/C)C(=O)O[C@H]1C(C)=C2[C@H]([C@@H]1OC(=O)CCCCCCC)[C@@](C)(OC(C)=O)C[C@H](OC(=O)CCC)[C@@]1(O)[C@H]2OC(=O)[C@@]1(C)O", "note": "[thapsigargin]", "values": [{"measurement": "sustained component of Ca^2+ increase", "setting": "cortical neurons", "value": "partially inhibited"}]}, {"molecule": "Cc1c(C)c2c(c(C)c1O)CCC(C)(C(=O)O)O2", "note": "(stereo not drawn) [trolox]", "values": [{"measurement": "LDH release induced by combined 1 hr OGD/acidosis", "setting": "[3]", "value": "not inhibited"}]}]}
